From BindingDB's records for doi:10.1016/j.bmcl.2014.04.013 (University of Utah, 2014)

experiment: Agonist activity at AHR in FVB/N mouse primary mammary epithelial cells assessed as blockade of mammary branching morphogenesis after 144 hrs by microscopic analysis in presence of FGF2

SMILES	EC50 [nM]
Clc1ccc(-c2nc(-c3ccccc3)no2)c(Cl)c1	1200
Nc1cc(C(F)(F)F)ccc1-c1nc(-c2ccccc2)no1	3200
Clc1ccc(-c2nc(-c3ccccc3)no2)c(Cl)c1Cl	> 10000
O=[N+]([O-])c1cc(F)ccc1-c1nc(-c2ccccc2)no1	2200
Nc1cc(Cl)ccc1-c1nc(-c2ccccc2)no1	1400
